The values that follow come from patent publication US9120812B2, “Pyrimidooxazocine derivatives as mTOR-inhibitors” (SANOFI, priority 2012, dated 2015).

SMILES strings stand for the structures.

Assay [1] addresses mTOR (human recombinant aa mTOR 1360-2549) (Homo sapiens (Human), UniProt P42345). Description: mTOR enzymatic test by TR-FRET (phosphorylation of GFP-4EBP1). The class given is biochemical. The procedure, abridged:
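After a 30 min room-temperature kinase reaction, EDTA (10 mM final) and Tb-labelled phospho-Thr46 antibody (2 nM final) were added and incubated 60 min. Energy transfer from Tb to phosphorylated GFP-4EBP1 was read at 340 nm excitation, emissions 490/520 nm. Values derive from the 520/490 fluorescence ratio.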
A general note: TR-FRET usually uses a lanthanide donor and a delayed reading to cut background.

For assay [2], the target named is PI3Kα (p110α/p85α) (Homo sapiens (Human), UniProt P42336). Description: PI3Kα enzymatic test by measuring the consumption of ATP. The class given is biochemical. In short, it runs like this: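 ATP consumption read out by KinaseGlo luminescence after a 90 min reaction of 1.7 μg/ml PI3Kα (p110α/p85α) with 2 μM ATP and 50 μM PIP2, buffered at pH 7.5 (Tris, 10 mM MgCl2, 1 mM EGTA, 0.03% Chaps, 1 mM DTT). Threefold dilution series over ≥10 000-fold range yield IC50.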
Chain of PI3Kα (p110α/p85α) (P42336 whole entry): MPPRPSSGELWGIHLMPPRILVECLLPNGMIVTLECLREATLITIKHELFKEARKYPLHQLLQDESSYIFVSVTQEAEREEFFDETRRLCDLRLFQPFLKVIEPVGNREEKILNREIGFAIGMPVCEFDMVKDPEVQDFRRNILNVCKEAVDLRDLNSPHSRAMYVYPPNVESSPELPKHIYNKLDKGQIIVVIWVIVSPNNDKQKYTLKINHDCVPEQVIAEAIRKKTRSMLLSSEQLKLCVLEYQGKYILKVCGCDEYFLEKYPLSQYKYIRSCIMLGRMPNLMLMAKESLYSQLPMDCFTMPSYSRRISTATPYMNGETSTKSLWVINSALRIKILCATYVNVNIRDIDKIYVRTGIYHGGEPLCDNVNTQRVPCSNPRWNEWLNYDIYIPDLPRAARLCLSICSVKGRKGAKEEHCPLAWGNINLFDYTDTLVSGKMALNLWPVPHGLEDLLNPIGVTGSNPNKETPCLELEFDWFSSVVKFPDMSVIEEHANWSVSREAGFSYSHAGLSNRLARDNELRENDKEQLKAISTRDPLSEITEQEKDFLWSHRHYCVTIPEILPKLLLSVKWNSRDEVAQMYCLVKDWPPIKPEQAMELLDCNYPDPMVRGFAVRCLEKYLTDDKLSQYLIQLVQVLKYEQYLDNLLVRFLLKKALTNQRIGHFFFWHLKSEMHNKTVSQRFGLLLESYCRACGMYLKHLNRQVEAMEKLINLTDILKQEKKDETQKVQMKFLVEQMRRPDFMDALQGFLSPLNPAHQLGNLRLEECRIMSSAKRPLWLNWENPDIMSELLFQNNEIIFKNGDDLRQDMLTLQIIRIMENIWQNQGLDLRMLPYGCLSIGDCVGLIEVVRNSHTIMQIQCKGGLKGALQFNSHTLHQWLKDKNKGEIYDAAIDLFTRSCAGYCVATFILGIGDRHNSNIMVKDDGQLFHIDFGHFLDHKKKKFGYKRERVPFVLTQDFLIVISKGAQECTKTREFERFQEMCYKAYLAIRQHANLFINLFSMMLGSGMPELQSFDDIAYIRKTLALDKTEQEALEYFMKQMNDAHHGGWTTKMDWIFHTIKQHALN
Chain of PI3Kα (p110α/p85α) (P27986 whole entry partner): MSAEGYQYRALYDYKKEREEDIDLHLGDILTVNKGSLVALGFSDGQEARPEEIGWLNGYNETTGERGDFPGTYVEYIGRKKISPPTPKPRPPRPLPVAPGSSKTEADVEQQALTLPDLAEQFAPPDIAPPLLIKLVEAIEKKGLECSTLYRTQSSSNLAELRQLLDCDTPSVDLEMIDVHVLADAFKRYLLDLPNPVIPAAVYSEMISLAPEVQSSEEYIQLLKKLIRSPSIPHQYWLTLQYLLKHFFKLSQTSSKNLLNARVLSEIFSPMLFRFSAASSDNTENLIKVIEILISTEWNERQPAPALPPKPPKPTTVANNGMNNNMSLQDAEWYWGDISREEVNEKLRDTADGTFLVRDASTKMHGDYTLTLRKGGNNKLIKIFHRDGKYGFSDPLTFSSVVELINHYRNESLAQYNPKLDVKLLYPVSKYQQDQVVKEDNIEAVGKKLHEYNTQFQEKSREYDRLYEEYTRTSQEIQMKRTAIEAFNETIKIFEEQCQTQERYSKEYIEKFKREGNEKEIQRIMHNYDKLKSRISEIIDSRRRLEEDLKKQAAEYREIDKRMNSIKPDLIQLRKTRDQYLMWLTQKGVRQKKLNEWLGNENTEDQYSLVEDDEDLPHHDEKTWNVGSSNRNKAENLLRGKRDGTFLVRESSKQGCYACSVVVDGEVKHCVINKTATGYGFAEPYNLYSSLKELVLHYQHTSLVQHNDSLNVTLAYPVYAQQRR

Assay [3] concerns Akt-pS473 in U87MG cells. Particulars: Homo sapiens, U-87 MG, read-out: U87 Akt-pS473 % Inhibition or IC50, nM (IC50), U87MG cells.
Method: Model 3: Cellular Test of Phosphorylation of the Epitope S473 of the Akt Protein on the U87MG Line Via an ELISA Test
An electrochemiluminescence signal is generated by a ruthenium-labelled anti-rabbit antibody.
After culturing for 16-20 hours (the cells are at 100% of confluence) at 37° C. under 5% CO2, 1 μl of the chemical compounds in 100% DMSO (1% DMSO final concentration on the cells) is added. The cells are incubated with the compounds for 3 hours at 37° C. under 5% CO2.
The free sites are blocked with 150 μl/well of a buffer of 50 mM Tris pH 7.5, 0.15 M NaCl, 0.02% Tween 20, 3% BSA with stirring at 450 rpm for 1 hour at room temperature, followed by a step of washing with 3×300 μl of a buffer of 50 mM Tris pH 7.5, 0.15 M NaCl, 0.02% Tween 20.
15 μl of cell lysate are mixed with 15 μl of a 50 mM buffer of Tris pH 7.5, 0.15 M NaCl, 0.02% Tween 20, 1% BSA in a precoated ELISA plate (see above), and incubated for 1 hour at room temperature with stirring, followed by a step of washing with 3×300 μl of a buffer of 50 mM Tris pH 7.5, 0.15 M NaCl, 0.02% Tween 20. The pS473 epitope of Akt is detected with a rabbit polyclonal antibody (Cell Signaling, SC9271), diluted 100-fold in 50 mM Tris pH 7.5, 0.15 M NaCl, 0.02% Tween 20, 1% BSA, 25 μl/well (incubation for 1 hour at room temperature with stirring at 450 rpm).
After washing (see above), revelation is performed with a ruthenium-labelled anti-rabbit antibody (MSD R32AB1), diluted 3000-fold in a 50 mM buffer of Tris pH 7.5, 0.15 M NaCl, 0.02% Tween 20, 1% BSA, 25 μl/well, followed by incubation for 1 hour at room temperature with stirring at 450 rpm, and the plates are covered with aluminium.
After a further washing step, the plates are emptied and 150 μl of MSD Read Buffer T diluted fourfold with water are added. The electrochemiluminescence is measured on the MSD Sector Imager 6000.
In assay [4] the test system is U87MG tumour cells. Description: Test of in vitro proliferation of U87MG tumour cells. The class given is cell-based. The conditions noted are these: Homo sapiens, U-87 MG, 72 h, U87MG cells, 72 hours; read-out: U87 Cell Proliferation IC50. The method, then:
Model 4: Test of in vitro Proliferation of U87MG Tumour Cells.
The cell growth is determined with the reagent CellTiter 96 AQueous One Solution Cell Proliferation Assay from Promega (Cat. No. G3581).

Chain of mTOR (human recombinant aa mTOR 1360-2549) (P42345 1360-2549): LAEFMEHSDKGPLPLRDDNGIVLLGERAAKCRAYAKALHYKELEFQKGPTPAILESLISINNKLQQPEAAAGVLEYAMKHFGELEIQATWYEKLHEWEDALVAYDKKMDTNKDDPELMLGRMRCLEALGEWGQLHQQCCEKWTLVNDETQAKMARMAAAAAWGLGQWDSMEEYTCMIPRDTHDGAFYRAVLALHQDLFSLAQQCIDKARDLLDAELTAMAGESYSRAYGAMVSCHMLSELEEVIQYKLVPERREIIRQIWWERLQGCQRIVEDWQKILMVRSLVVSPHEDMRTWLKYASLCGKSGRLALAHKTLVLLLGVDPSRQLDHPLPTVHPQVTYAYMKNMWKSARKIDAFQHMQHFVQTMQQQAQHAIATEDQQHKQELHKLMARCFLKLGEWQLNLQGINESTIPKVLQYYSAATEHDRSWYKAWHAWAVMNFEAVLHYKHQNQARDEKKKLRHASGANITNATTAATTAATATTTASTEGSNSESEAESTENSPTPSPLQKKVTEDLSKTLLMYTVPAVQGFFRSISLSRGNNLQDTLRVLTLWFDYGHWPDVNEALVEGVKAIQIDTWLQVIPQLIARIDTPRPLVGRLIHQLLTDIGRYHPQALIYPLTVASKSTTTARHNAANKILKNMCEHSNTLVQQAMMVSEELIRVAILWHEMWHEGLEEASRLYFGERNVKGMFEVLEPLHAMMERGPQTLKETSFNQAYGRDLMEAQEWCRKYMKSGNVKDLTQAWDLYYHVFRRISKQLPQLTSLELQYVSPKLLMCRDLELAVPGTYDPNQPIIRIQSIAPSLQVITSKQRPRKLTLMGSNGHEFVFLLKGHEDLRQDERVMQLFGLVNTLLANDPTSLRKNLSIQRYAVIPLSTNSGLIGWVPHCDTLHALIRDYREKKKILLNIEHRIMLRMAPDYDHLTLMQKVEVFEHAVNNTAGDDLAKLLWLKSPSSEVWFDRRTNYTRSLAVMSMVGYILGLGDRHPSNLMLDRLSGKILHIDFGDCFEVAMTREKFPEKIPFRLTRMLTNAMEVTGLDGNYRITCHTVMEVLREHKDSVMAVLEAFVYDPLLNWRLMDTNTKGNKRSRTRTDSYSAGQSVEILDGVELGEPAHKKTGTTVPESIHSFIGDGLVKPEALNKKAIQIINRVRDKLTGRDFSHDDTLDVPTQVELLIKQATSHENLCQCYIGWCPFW

In the case of `Cc1cc(NC(=O)Nc2ccc(-c3nc(N4CC5CCC(C4)O5)nc4c3C(=O)N(C3CCOCC3)CC(C)(C)O4)cc2)no1` [Example 15, 1-{4-[8,8-dimethyl-2-(8-oxa-3-azabicyclo[3.2.1]oct-3-yl)-5-oxo-6-(tetrahydropyran-4-yl)-5,6,7,8-tetrahydro-9-oxa-1,3,6-triazabenzocyclohepten-4-yl]phenyl}-3-(5-methylisoxazol-3-yl)urea], the IC50 in assay [1] was determined as 12 nM; in assay [3], 76 nM; in assay [4], 218 nM. Besides, the “PI3Ka IC50” value in assay [2] is 5300 nM.
Turning to `Cn1ccc(NC(=O)Nc2ccc(-c3nc(N4CC5CCC(C4)O5)nc4c3C(=O)N(C3CCOCC3)CC(C)(C)O4)cc2)n1` [Example 16, 1-{4-[8,8-dimethyl-2-(8-oxa-3-azabicyclo[3.2.1]oct-3-yl)-5-oxo-6-(tetrahydropyran-4-yl)-5,6,7,8-tetrahydro-9-oxa-1,3,6-triazabenzocyclohepten-4-yl]phenyl}-3-(1-methyl-1H-pyrazol-3-yl)urea], the IC50 in assay [1] came out at 19 nM; in assay [3], 269 nM; in assay [4], 527 nM. In addition, in assay [2], the “PI3Ka IC50” value is >10000 nM.
The like results for `CCN1CC(C)(C)Oc2nc(N3CC4CCC(C3)O4)nc(-c3ccc(NC(=O)Nc4cccc(OC(F)F)c4)cc3)c2C1=O` [Example 18, 1-(3-difluoromethoxyphenyl)-3-{4-[6-ethyl-8,8-dimethyl-2-(8-oxa-3-azabicyclo[3.2.1]oct-3-yl)-5-oxo-5,6,7,8-tetrahydro-9-oxa-1,3,6-triazabenzocyclohepten-4-yl]phenyl}urea] were, in that order, 25 nM, 29 nM, 63 nM and 7570 nM.
For `CCN1CC(C)(C)Oc2nc(N3CC4CCC(C3)O4)nc(-c3ccc(NC(=O)Nc4ccc(F)cc4F)cc3)c2C1=O` [Example 19, 1-(2,4-difluorophenyl)-3-{4-[6-ethyl-8,8-dimethyl-2-(8-oxa-3-azabicyclo[3.2.1]oct-3-yl)-5-oxo-5,6,7,8-tetrahydro-9-oxa-1,3,6-triazabenzocyclohepten-4-yl]phenyl}urea], in that order: 32 nM, 28 nM, 122 nM and 6219 nM.
For `CCN1CC(C)(C)Oc2nc(N3CC4CCC(C3)O4)nc(-c3ccc(NC(=O)OC[C@H](C)O)c(F)c3)c2C1=O` [Example 20, {4-[6-ethyl-8,8-dimethyl-2-(8-oxa-3-azabicyclo[3.2.1]oct-3-yl)-5-oxo-5,6,7,8-tetrahydro-9-oxa-1,3,6-triazabenzocyclohepten-4-yl]-2-fluorophenyl}carbamic acid (S)-2-hydroxypropyl ester], in that order: 286 nM, > 1000 nM, 7590 nM and >10000 nM.
As for `COc1ccnc(NC(=O)Nc2ccc(-c3nc(N4CC5CCC(C4)O5)nc4c3C(=O)N(C)CC(C)(C)O4)cc2)c1` [Example 21, 1-(4-methoxypyridin-2-yl)-3-{4-[6,8,8-trimethyl-2-(8-oxa-3-azabicyclo[3.2.1]oct-3-yl)-5-oxo-5,6,7,8-tetrahydro-9-oxa-1,3,6-triazabenzocyclohepten-4-yl]phenyl}urea], the IC50 in assay [1] worked out at 15 nM; in assay [3] it was 51 nM; in assay [4], 549 nM. The “PI3Ka IC50” value in assay [2] was >10000 nM.
For `CCN1CC(C)(C)Oc2nc(N3CC4CCC(C3)O4)nc(-c3ccc(NC(=O)Nc4ccc(OC5CCN(C)CC5)nc4)c(F)c3)c2C1=O` [Example 22, 1-{4-[6-ethyl-8,8-dimethyl-2-(8-oxa-3-azabicyclo[3.2.1]oct-3-yl)-5-oxo-5,6,7,8-tetrahydro-9-oxa-1,3,6-triazabenzocyclohepten-4-yl]-2-fluorophenyl}-3-[6-(1-methylpiperidin-4-yloxy)pyridin-3-yl]urea], in that order: 76 nM, 28 nM, 68 nM and 3070 nM.
The like results for `CCN1CC(C)(C)Oc2nc(N3CCOC[C@@H]3C)nc(-c3ccc(NC(=O)Nc4ccc(C(=O)N5CCC(N(C)C)CC5)cc4)cc3)c2C1=O` [Example 23, 1-[4-(4-dimethylaminopiperidine-1-carbonyl)phenyl]-3-{4-[6-ethyl-8,8-dimethyl-2-((S)-3-methylmorpholin-4-yl)-5-oxo-5,6,7,8-tetrahydro-9-oxa-1,3,6-triazabenzocyclohepten-4-yl]phenyl}urea] were, in that order, 51 nM, 62 nM, 30 nM and 79 nM.
The like results for `CCN1CC(C)(C)Oc2nc(N3CC4CCC(C3)O4)nc(-c3ccc(NC(=O)Nc4ccc(N5CCCC5)cn4)cc3)c2C1=O` [Example 25, 1-{4-[6-ethyl-8,8-dimethyl-2-(8-oxa-3-azabicyclo[3.2.1]oct-3-yl)-5-oxo-5,6,7,8-tetrahydro-9-oxa-1,3,6-triazabenzocyclohepten-4-yl]phenyl}-3-(5-pyrrolidin-1-ylpyridin-2-yl)urea] were, in that order, 130 nM, 124 nM, 196 nM and >10000 nM.
Take `CCN1CC(C)(C)Oc2nc(N3CCOC[C@@H]3C)nc(-c3ccc(NC(=O)Nc4ccon4)c(C)c3)c2C1=O` [Example 26, 1-{4-[6-ethyl-8,8-dimethyl-2-((S)-3-methylmorpholin-4-yl)-5-oxo-5,6,7,8-tetrahydro-9-oxa-1,3,6-triazabenzocyclohepten-4-yl]-2-methylphenyl}-3-isoxazol-3-ylurea]: the IC50 in assay [1] was 112 nM; in assay [3], > 1000 nM; in assay [4], 3570 nM. Further, the “PI3Ka IC50” value in assay [2] was 3860 nM.
For `CCN1CC(C)(C)Oc2nc(N3CC4CCC(C3)O4)nc(-c3ccc(NC(=O)Nc4cncc(OC)n4)cc3)c2C1=O` [Example 28, 1-{4-[6-ethyl-8,8-dimethyl-2-(8-oxa-3-azabicyclo[3.2.1]oct-3-yl)-5-oxo-5,6,7,8-tetrahydro-9-oxa-1,3,6-triazabenzocyclohepten-4-yl]phenyl}-3-(6-methoxypyrazin-2-yl)urea], in that order: 59 nM, 42 nM, 508 nM and >10000 nM.
`CCN1CC(C)(C)Oc2nc(N3CC4CCC(C3)O4)nc(-c3ccc(NC(=O)Nc4ccc(N5CCOC[C@@H]5C)nc4)c(F)c3)c2C1=O` [Example 29, 1-{4-[6-ethyl-8,8-dimethyl-2-(8-oxa-3-azabicyclo[3.2.1]oct-3-yl)-5-oxo-5,6,7,8-tetrahydro-9-oxa-1,3,6-triazabenzocyclohepten-4-yl]-2-fluorophenyl}-3-[6-((S)-3-methylmorpholin-4-yl)pyridin-3-yl]urea]: the figures for the IC50 in assay [1], in assay [3] and in assay [4] were 38 nM, 32 nM and 165 nM, respectively. Further, the “PI3Ka IC50” value in assay [2] is >10000 nM.
For `CCN1CC(C)(C)Oc2nc(N3CC4CCC(C3)O4)nc(-c3ccc(NC(=O)Nc4ccc(N5CCOC[C@H]5C)nc4)c(F)c3)c2C1=O` [Example 30, 1-{4-[6-ethyl-8,8-dimethyl-2-(8-oxa-3-azabicyclo[3.2.1]oct-3-yl)-5-oxo-5,6,7,8-tetrahydro-9-oxa-1,3,6-triazabenzocyclohepten-4-yl]-2-fluorophenyl}-3-[6-((R)-3-methylmorpholin-4-yl)pyridin-3-yl]urea], the IC50 amounted to 21 nM in assay [1], 15 nM in assay [3] and 46 nM in assay [4]. For the same compound, the “PI3Ka IC50” value in assay [2] is >10000 nM.
